Test [1] deals with T1, PAF receptor (Homo sapiens, UniProt P25105).
T1 construct: Platelet concentrates were obtained from a hospital blood bank; from tissue; host or cells: human platelets (plasma membrane fraction of lysed platelets from hospital blood bank concentrates)
Put plainly: Inhibition of [3H]-PAF receptor binding to human platelet plasma membrane (isotopic labelling and filtration). To be noted: human platelet membranes, 0.5 nM [3H]-PAF, 0° C., 1 hour. On the procedure: Compounds of general formula I inhibit PAF-induced functions in both the cellular and tissue levels by changing the PAF binding to its specific receptor site. The ability of compounds of general formula I to inhibit the binding of PAF to its specific receptor binding site on human platelet plasma membranes was measured according to the pharmacological example. […] Platelet concentrates were obtained from a hospital blood bank. These platelet concentrates (500-2500 ml.) were centrifuged at 800 rpm for 10 minutes in a SORVALL RC3B centrifuge to remove the red blood cells present. (The word SORVALL is a trade mark.) The supernatant was subsequently centrifuged at 3,000 rpm in a SORVALL RC3B centrifuge to pellet the platelets present. The platelet rich pellets were resuspended in a minimum volume of buffer (150 mM NaCl, 10 mM Tris, 2 mM EDTA, pH 7.5) and layered onto Ficoll-Paque gradients, 9 ml platelet concentrate to 2 ml Ficoll, and centrifuged at 1,900 rpm for 15 minutes in a SORVALL RT6000 centrifuge. This step removes the residual red blood cells and other nonspecific material such as lymphocytes from the preparation. The platelets which form a band between the plasma and the Ficoll were removed, resuspended in the above buffer and centrifuged at 3,000 rpm for 10 minutes in a SORVALL RT6000 centrifuge. The pelleted platelets were resuspended in buffer (10 mM Tris, 5mM MgCl2, 2 mM EDTA, pH 7.0), snap freezed in liquid N2 and allowed to thaw slowly at room temperature in order to lyse the platelets. The latter step was repeated at least 3 times to ensure proper lysis. The lysed platelets were centrifuged at 3,000 rpm for 10 minutes in a SORVALL RT6000 centrifuge and resuspended in buffer. The latter step was repeated twice in order to remove any cytoplasmic proteins which may hydrolyse the […]. The prepared platelet membranes may be stored at -70° C. After thawing the prepared membranes were centrifuged in a SORVALL RT6000 at 3,000 rpm for 10 minutes and resuspended in assay buffer. The assay was conducted by preparing a series of Tris-buffered solutions of the selected antagonist of predetermined concentrations. […] Incubation was initiated by the addition of 100 μg of the isolated membrane fraction to each of the above solutions at 0° C. […] (The word WHATMAN is a trade mark.) The residue in each case was rapidly washed 4 times with 5 ml cold (4° C.) Tris-buffer solution. […] % Inhibition=[(TB-TBA)/SB]x100 where the specific binding SB=TB-NSB […]

The subject of test [2] is PAF-induced hypotension in the rat. Put plainly: Reversal of PAF-induced hypotension in anaesthetised rats. In kind it is in vivo, rat (male Sprague-Dawley). To be noted: for inhibition of PAF-induced hypotension: @ 1 mg/kg i.v.; for ED50: iv, i.v. bolus, PAF 100 ng/kg/min i.v., straight line interpolation, read-out: ED50 (dose to cause 50% reversal of the hypotensive PAF response). The protocol: Male Sprague-Dawley rats (300-400 g) were anaesthetised with a mixture of sodium pentobarbitone, 22.5 mg·kg^-1 and thiopental 62.5 mg·kg^-1. Through a midline incision in the neck, the trachea was cannulated and the animals breathed spontaneously. A carotid artery was cannulated for the measurement of blood pressure and this signal was used to trigger a rate meter to measure heart rate. Both jugular veins were cannulated: one for the infusion of PAF and the other for the bolus administration of test compounds.
PAF, 100 ng·kg^-1 .min^-1 was infused i.v. until a sustained fall in mean blood pressure of 50 mmHg was achieved. […] The peak of this reversal was measured and the dose to cause a 50% reversal of the hypotensive PAF response (ED50) calculated by straight line interpolation and the results are presented in Table 2.

For test [3], the system named is PAF-induced bronchoconstriction in the guinea pig. Put plainly: Reversal of PAF-induced bronchoconstriction in anaesthetised guinea-pigs (modified Konzett-Rossler). The test is classed as in vivo, guinea-pig (male Dunkin-Hartley). The settings on record: Cavia porcellus, iv, PAF 40 ng/kg/min i.v., read-out: ED50 (dose resulting in 50% reversal of PAF-induced bronchoconstriction). On the procedure:
The inhibition of PAF induced bronchoconstriction was measured in anaesthetised artificially ventilated guinea-pigs (450-500 g) using a modified version of the Konzett-Rossler technique (Konzett M and Rossler R, Naunym-Schmiedeb. Arch. Exp. Pathol. Pharmakol., 1940, 197, 71). Male Dunkin-Hartley guinea-pigs were anaesthetised with urethane, 1.6 g·kg^-1. Through a midline neck incision, the trachea was cannulated and the animal ventilated with a constant tidal volume set between 5 and 15 ml, to give a tracheal inflation pressure of 15 mmHg at a rate of 40 per minute. A carotid artery was cannulated for the measurement of blood pressure and heart rate and both jugular veins were cannulated, one for the infusion of PAF and the other for the administration of test compounds. PAF, 40 ng·kg^-1 ·min^-1, was infused i.v. to produced a 100% increase in tracheal inflation pressure, and bronchoconstrictor effects were determined.

Test [4] relates to endotoxin induced hypotension in the rat. Put plainly: Reversal of endotoxin induced hypotension in anaesthetised rats. To be noted: iv, i.v. bolus, E. coli endotoxin 0111:B4, straight line interpolation, read-out: ED50 (dose resulting in 50% reversal of endotoxin induced hypotension). The test is classed as in vivo. On the procedure:
Rats were anaesthetised with a mixture of sodium pentobarbitone, 22.5 mg·kg^-1, and thiopental, 62.5 mg·kg^-1. The animals breathed spontaneously, air enriched with oxygen, and a carotid artery was cannulated for the measurement of blood pressure and heart rate. […] Test compounds were administered i.v. via the other jugular vein as a bolus.

Twelve compounds from patent US5428168A, “Lactol PAF antagonists” (British Biotech Pharmaceuticals Limited, priority 1990, dated 1995) can be followed below.

pIC50: −log10 of the molar value.

T1 sequence (P25105 whole entry): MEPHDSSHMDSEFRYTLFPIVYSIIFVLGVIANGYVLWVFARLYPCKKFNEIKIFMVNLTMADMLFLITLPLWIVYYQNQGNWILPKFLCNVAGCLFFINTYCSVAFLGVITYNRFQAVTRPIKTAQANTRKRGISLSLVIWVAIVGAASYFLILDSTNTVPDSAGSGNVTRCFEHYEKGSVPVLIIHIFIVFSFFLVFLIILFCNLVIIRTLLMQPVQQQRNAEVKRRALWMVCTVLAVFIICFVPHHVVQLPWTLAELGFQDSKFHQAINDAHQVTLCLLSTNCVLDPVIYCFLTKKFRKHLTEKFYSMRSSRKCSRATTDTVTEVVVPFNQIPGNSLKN

For the compound `COc1ccc([C@H]2CC[C@H](OCCCc3ccc[n+](C)c3)O2)cc1OC` (relative stereo) [Comparative Example A, trans-O-(3-(3-N-methylpyridyl)propyl)-5-(3,4-dimethoxyphenyl)-gamma-butyrolactol ether iodide, reference compound], the pIC50 in test [1] was 5.52. In addition, in test [2], the “inhibition of PAF-induced hypotension” value was 31% and the ED50 is more than 1000 µg/kg.

The compound `COc1ccc([C@H]2CC[C@@H](OCCCc3ccc[n+](C)c3)O2)cc1OC` (relative stereo) [Comparative Example B, cis-O-(3-(3-N-methylpyridyl)propyl)-5-(3,4-dimethoxyphenyl)-gamma-butyrolactol ether iodide, reference compound] gave a pIC50 in test [1] of 6.00. In test [2], the “inhibition of PAF-induced hypotension” value was 10% and the median effective dose (ED50) is more than 1000 µg/kg.

In turn, `COc1ccc([C@H]2CC[C@H](OCCCc3cccnc3)O2)cc1OC` (relative stereo) [Example 1A, trans-O-(3-(3-pyridyl)propyl)-5-(3,4-dimethoxyphenyl)-gamma-butyrolactol ether] showed a negative logarithm of the IC50 (pIC50) in test [1] of 5.40. The median effective dose (ED50) in test [2] came out at 27 µg/kg.

`COc1ccc([C@H]2CC[C@@H](OCCCc3cccnc3)O2)cc1OC` (relative stereo) [Example 1B, cis-O-(3-(3-pyridyl)propyl)-5-(3,4-dimethoxyphenyl)-gamma-butyrolactol ether]: the values for the ED50 in test [2], in test [3] and in test [4] were 9 µg/kg, 2.1 µg/kg and 18 µg/kg, respectively.

As for `COc1ccc([C@H]2CC[C@H](OCCCn3c(C)nc4cnccc43)O2)cc1OC` (relative stereo) [Example 30B, O-(3-(1H-2-Methylimidazo[4,5-c]pyridyl)propyl)-5-(3,4-dimethoxyphenyl)-gamma-butyrolactol ether], the pIC50 in test [1] is 8.15. Further, the ED50 in test [4] came out at 7 µg/kg.

For the compound `COc1ccc(C2CCC(OCc3csc(-c4cccnc4)n3)O2)cc1OC` (centres unmarked) [Example 27, O-((2-(3-Pyridyl)-4-thiazolyl)methyl)-5-(3,4-dimethoxyphenyl)-gamma-butyrolactol ether], the pIC50 in test [1] is 5.00. Moreover, in test [2], the median effective dose (ED50) came to 120 µg/kg.

The compound `COc1ccc(C2CCC(OCCCn3c(C)nc4cnccc43)O2)cc1OC` (centres unmarked) [Example 30, O-(3-(1H-2-Methylimidazo[4,5-c]pyridyl)propyl)-5-(3,4-dimethoxyphenyl)-gamma-butyrolactol ether] gave a pIC50 in test [1] of 7.82. Besides, the ED50 in test [2] came out at 1 µg/kg; in test [3], 0.4 µg/kg.

Consider `COc1ccc(C2CCC(OCCCCn3c(C)nc4cnccc43)O2)cc1OC` (centres unmarked) [Example 31, O-(4-(1H-2-Methylimidazo[4,5-c]pyridyl)butyl)-5-(3,4-dimethoxyphenyl)-gamma-butyrolactol ether], for which the 50% effective dose (ED50) in test [2] is 3 µg/kg.

In the case of `Cc1nc2cnccc2n1CCCOC1CCC(c2ccc(F)cc2)O1` (centres unmarked) [Example 33, O-(3-(1H-2-Methylimidazo[4,5-c]pyridyl)propyl)-5-(4-fluorophenyl)-gamma-butyrolactol ether], the pIC50 in test [1] was 8.15. Further, the ED50 in test [2] was 1 µg/kg.

`Cc1nc2cnccc2n1CCCOC1CCC(c2ccc(Br)cc2)O1` (centres unmarked) [Example 34, O-(3-(1H-2-Methylimidazo[4,5-c]pyridyl)propyl)-5-(4-bromophenyl)-gamma-butyrolactol ether] had a pIC50 in test [1] of 8.00.

In test [1], `Cc1nc2cnccc2n1CCCOC1CCC(c2ccc(Cl)c(Cl)c2)O1` (centres unmarked) [Example 35, O-(3-(1H-2-Methylimidazo[4,5-c]pyridyl)propyl)-5-(3,4-dichlorophenyl)-gamma-butyrolactol ether] showed a pIC50 of 8.30. Further, the ED50 in test [2] is 2 µg/kg.

Consider `COc1ccc(C2CCC(OCCCn3c(C)nc4cnccc43)O2)cc1Cl` (centres unmarked) [Example 36, O-(3-(1H-2-Methylimidazo[4,5-c]pyridyl)propyl)-5-(3-chloro-4-methoxyphenyl)-gamma-butyrolactol ether], for which the pIC50 in test [1] was 8.52. For the same compound, the ED50 in test [2] worked out at 2 µg/kg.
